MIC data for 14 compounds are collected here from EP0093376B2, “1-Sulfo-2-azetidinone derivatives, their production and use” (Takeda Chemical Industries, Ltd., priority 1982, dated 1983).

In brackets after ≈: the same amount, converted by molar mass.

What is called MIC is the lowest concentration found to suppress growth.

Assay type in all cases: cell-based
Test [1] has as its system Enterobacter cloacae IFO 12937. Description: MIC by agar dilution method (Experimental Example). The note with it: IFO12937; test organism (1) Enterobacter cloacae IFO 12937; Trypticase soy agar; inoculum about 10^8 CFU/ml; overnight culture at 37°C; complete growth inhibition. How it is done: (§1) The MIC of each test compound was determined by the agar dilution method. Thus, a stock aqueous solution of each test compound is serially diluted and the resultant dilution series are put in petri dishes. Then, 9.0 ml of Trypticase soy agar per dish is added and mixed. Each of the agar plates is smeared with a suspension of the test organism (about 10^8 CFU/ml). After overnight culture at 37°C, the minimum concentration of the test compound that caused a complete growth inhibition of the organism is taken as the MIC (minimal inhibitory concentration) value.
(§2) • (1) Enterobacter cloacae IFO 12937 • (2) Klebsiella pneumoniae TN 1711
A general note: In agar dilution, organisms are placed on agar that contains the substance at set levels.

Test [2] relates to Klebsiella pneumoniae TN 1711. Description: MIC by agar dilution method (Experimental Example). The note with it: TN1711; test organism (2) Klebsiella pneumoniae TN 1711; Trypticase soy agar; inoculum about 10^8 CFU/ml; overnight culture at 37°C; complete growth inhibition. How it is done: as §1, §2
For test [3], the system named is Enterobacter cloacae IFO 12937. Description: MIC by agar dilution method (Test Example). The note with it: IFO12937; test organism (1) Enterobacter cloacae IFO 12937; Trypticase soy agar; inoculum about 10^6 CFU/ml; overnight at 37°C. How it is done: (§3) The MIC values for the test compounds were determined by the agar dilution method. Thus, 1.0 ml of each serially diluted aqueous solution of each test compound was poured into a petri dish. Then, 9.0 ml of Trypticase soy agar was added and mixed with the aqueous solution. A suspension of the test organism (about 10^6 CFU/ml) was smeared onto the mixed agar plate and incubated overnight at 37°C.
(§4) • (1) Enterobacter cloacae IFO 12937 • (2) Klebsiella pneumoniae TN 1711 • (3) Pseudomonas aeruginosa GN 3407

The test system of test [4] is Klebsiella pneumoniae TN 1711. Description: MIC by agar dilution method (Test Example). The note with it: TN1711; test organism (2) Klebsiella pneumoniae TN 1711; Trypticase soy agar; inoculum about 10^6 CFU/ml; overnight at 37°C. How it is done:
as §3, §4

Test [5] deals with Pseudomonas aeruginosa GN 3407. Description: MIC by agar dilution method (Test Example). Particulars: GN3407; test organism (3) Pseudomonas aeruginosa GN 3407; Trypticase soy agar; inoculum about 10^6 CFU/ml; overnight at 37°C. How it is done: as §3, §4

For `CC(C)(O/N=C(\C(=O)N[C@@H]1C(=O)N(S(=O)(=O)[O-])[C@@H]1C[n+]1ccccc1)c1csc(N)n1)C(=O)O` (relative stereo) [Monosodium cis-3-[2-(2-amino-4-thiazolyl)-2-(Z)-(1-carboxylato-1-methylethoxyimino)acetamido]-4-pyridiniomethyl-2-azetidinone-1-sulfonate], the values for the MIC in test [1] and in test [2] were 3.13 µg/mL and 12.5 µg/mL, respectively.
For `CO/N=C(\C(=O)N[C@@H]1C(=O)N(S(=O)(=O)O)[C@@H]1C(N)=O)c1csc(N)n1` (relative stereo) [Sodium cis-3-[2-(2-amino-4-thiazolyl)-2-(Z)-methoxyiminoacetamido]-4-carbamoyl-2-azetidinone-1-sulfonate], in that order: 1.56 µg/mL and 0.39 µg/mL.
Take `COC(=O)CC[C@@H]1[C@H](NC(=O)/C(=N\OC(C)(C)C(=O)O)c2csc(N)n2)C(=O)N1S(=O)(=O)O` (relative stereo) [cis-3-[2-(2-Amino-4-thiazolyl)-2-(Z)-(1-carboxy-1-methylethoxyamino)acetamido]-4-(2-methoxy-carbonylethyl)-2-azetidinone-1-sulfonic acid]: the MIC in test [1] came to 6.25 µg/mL (≈ 12.3 µM); in test [2] it was 3.13 µg/mL (≈ 6.17 µM).
In the case of `COC[C@@H]1[C@H](NC(=O)/C(=N\OC(C)(C)C(=O)O)c2csc(N)n2)C(=O)N1S(=O)(=O)O` (relative stereo) [cis-3-[2-(2-Amino-4-thiazolyl)-2-(Z)-(1-carboxy-1-methylethoxyimino)acetamido]-4-methoxymethyl-2-azetidinone-1-sulfonic acid], the results for the MIC in test [1] and in test [2] were 1.56 µg/mL (≈ 3.35 µM) and 0.2 µg/mL (≈ 0.43 µM), respectively.
For `CC(C)(O/N=C(\C(=O)N[C@@H]1C(=O)N(S(=O)(=O)O)[C@@H]1CS(C)(=O)=O)c1csc(N)n1)C(=O)O` (relative stereo) [cis-3-[2-(2-Amino-4-thiazolyl)-2-(Z)-(1-carboxy-1-methylethoxyimino)acetamido]-4-methylsulfonyl-methyl-2-azetidinone-1-sulfonic acid], in that order: 12.5 µg/mL (≈ 24.3 µM) and 1.56 µg/mL (≈ 3.04 µM).
For `CC(C)(O/N=C(\C(=O)N[C@@H]1C(=O)N(S(=O)(=O)O)[C@@H]1CNC(N)=O)c1csc(N)n1)C(=O)O` (relative stereo) [cis-3-[2-(2-Amino-4-thiazolyl)-2-(Z)-(1-carboxy-1-methylethoxyimino)acetamido]-4-ureidomethyl-2-azetidinone-1-sulfonic acid], in that order: 12.5 µg/mL (≈ 25.3 µM) and 3.13 µg/mL (≈ 6.34 µM).
For `C[S+]([O-])C[C@@H]1[C@H](NC(=O)/C(=N\OC(C)(C)C(=O)O)c2csc(N)n2)C(=O)N1S(=O)(=O)O` (relative stereo) [cis-3-[2-(2-Amino-4-thiazolyl)-2-(Z)-(1-carboxy-1-methylethoxyimino]acetamido]-4-methylsulfinyl-methyl-2-azetidinone-1-sulfonic acid], in that order: 3.13 µg/mL (≈ 6.29 µM) and 0.78 µg/mL (≈ 1.57 µM).
As for `COC[C@@H]1[C@H](NC(=O)/C(=N\OCC(=O)O)c2csc(N)n2)C(=O)N1S(=O)(=O)O` (relative stereo) [cis-3-[2-(2-Amino-4-thiazolyl)-2-(Z)-carboxy-methoxyiminoacetamido]-4-methoxymethyl-2-azetidinone-1-sulfonic acid], the MIC in test [1] was found to be 3.13 µg/mL (≈ 7.16 µM); in test [2] it was 0.1 µg/mL (≈ 0.229 µM).
On to `NC(=O)OC[C@@H]1[C@H](NC(=O)/C(=N\OCC(=O)O)c2csc(N)n2)C(=O)N1S(=O)(=O)O` [Example 2'], for which the MIC in test [3] worked out at 0.05 µg/mL (≈ 0.107 µM); in test [4], 0.05 µg/mL (≈ 0.107 µM); in test [5], 1.56 µg/mL (≈ 3.34 µM).
For `CC(C)(O/N=C(\C(=O)N[C@@H]1C(=O)N(S(=O)(=O)O)[C@@H]1COC(N)=O)c1csc(N)n1)C(=O)O` [Example 4'], the MIC is 0.39 µg/mL (≈ 0.789 µM) in test [3], 0.1 µg/mL (≈ 0.202 µM) in test [4] and 6.25 µg/mL (≈ 12.6 µM) in test [5].
Regarding `CCC[C@H]1[C@H](NC(=O)/C(=N\OC(C)(C)C(=O)O)c2csc(N)n2)C(=O)N1S(=O)(=O)O` [Sodium [3S,4S]-3-[(2-(2-aminothiazol-4-yl)-2-(Z)-(1-carboxy-1-methylethoxyimino)acetamido]-4-propyl-2-azetidinone-1-sulfonate], the values for the MIC in test [1] and in test [2] were 12.5 µg/mL and 0.78 µg/mL, respectively.
For `CC(=O)CC1C(NC(=O)C(=NOC(C)(C)C(=O)O)c2csc(N)n2)C(=O)N1S(=O)(=O)O` (centres unmarked) [Sodium [3S,4S]-3-[(2-(2-aminothiazol-4-yl)-2-(Z)-(1-carboxy-1-methylethoxyimino]acetamido]-4-(2-oxopropyl)-2-azetidinone-1-sulfonate], in that order: 12.5 µg/mL and 3.13 µg/mL.
For `CON=C(C(=O)NC1C(=O)N(S(=O)(=O)O)C1CC(C)=O)c1csc(N)n1` (stereo not drawn) [Sodium [3S,4S]-cis-3-[(2-(2-aminothiazol-4-yl)-2-(Z)-methoxyimino]acetamido]-4-(2-oxopropyl)-2-azetidinone-1-sulfonate], in that order: 3.13 µg/mL and 3.13 µg/mL.
With `CO/N=C(\C(=O)N[C@@H]1C(=O)N(S(=O)(=O)O)[C@H]1CC(C)=O)c1csc(N)n1` [Sodium [3S, 4S]-trans-3-[2-(2-aminothiazol-4-yl]-2-(Z)-methoxyimino]acetamido]-4-(2-oxopropyl)-2-azetidinone-1-sulfonate], in test [1], the MIC turned out to be 6.25 µg/mL.
